Tests used:
[1] = target: Cannabinoid receptor 1 (Rattus norvegicus, UniProt P20272); experiment: Binding affinity to rat CB1 receptor
[2] = system: Fibroblast; experiment: Reduction of lecithin content in Niemann-Pick patient fibroblast at 30 uM; format: functional, Homo sapiens; design: scale not given: the % may be the effect or the level left
[3] = system: Fibroblast; experiment: Reduction of sphingomyelin content in Niemann-Pick patient fibroblast at 30 uM; format: functional, Homo sapiens; design: scale not given: the % may be the effect or the level left
[4] = Reduction of lecithin content in human fibroblast at 30 uM; format: ADME, cell-based; design: scale not given: the % may be the effect or the level left
[5] = Reduction of sphingomyelin content in human fibroblast at 30 uM; format: ADME, cell-based; design: scale not given: the % may be the effect or the level left
[6] = system: Mus musculus; experiment: Reduction of iNOS protein expression in C57BL/6J mouse hippocampus inoculated with human amyloid beta (1 to 42) at 10 ug/kg, ip after 10 days by immunofluorescence analysis; format: functional; design: scale not given: the % may be the effect or the level left
[7] = system: Mus musculus; experiment: Reduction of IL-1beta protein expression in C57BL/6J mouse hippocampus inoculated with human amyloid beta (1 to 42) at 10 ug/kg, ip after 10 days by immunofluorescence analysis; format: functional; design: scale not given: the % may be the effect or the level left
[8] = system: Mus musculus; experiment: Reduction of NO release in C57BL/6J mouse hippocampus inoculated with human amyloid beta (1 to 42) at 10 ug/kg, ip after 7 days; format: functional; design: scale not given: the % may be the effect or the level left
[9] = system: Mus musculus; experiment: Reduction of IL-1beta release in C57BL/6J mouse hippocampus inoculated with human amyloid beta (1 to 42) at 10 ug/kg, ip after 10 days by ELISA; format: functional; design: scale not given: the % may be the effect or the level left
[10] = system: Mus musculus; experiment: Antiinflammatory activity in Swiss OF1 mouse assessed as reduction of LPS-induced TNF-alpha expression at 10 mg/kg, ip by immunoblotting analysis; format: functional; design: scale not given: the % may be the effect or the level left; conditions: route intraperitoneal
[11] = Antiinflammatory activity in human glial cells assessed as reduction of LPS-induced iNOS expression at 1 uM; format: functional; design: scale not given: the % may be the effect or the level left
[12] = Antiinflammatory activity in human glial cells assessed as reduction of LPS-induced nitrate expression at 1 uM; format: functional; design: scale not given: the % may be the effect or the level left
[13] = Antiinflammatory activity in human glial cells assessed as reduction of LPS-induced S100B expression at 1 uM; format: functional; design: scale not given: the % may be the effect or the level left
[14] = system: HEK293; experiment: Induction of rat TRPV3 expressed in HEK293 cells assessed as increase of Ca2+ level relative to ionomycin; format: cell-based
[15] = Induction of rat TRPV3 expressed in HEK293 cells assessed as increase of Ca2+ level; format: cell-based
[16] = system: Neutrophil; experiment: Inhibition of human neutrophil migration incubated for 30 mins prior to fMLP challenge by boyden chamber assay; format: functional, cell-based
[17] = target: Cannabinoid receptor 1 (Mus musculus, UniProt P47746); experiment: Partial agonist activity at mouse CB1 receptor by vas deferens assay
Cannabinoid receptor 1 (Mus musculus, UniProt P47746), sequence (P47746 whole entry): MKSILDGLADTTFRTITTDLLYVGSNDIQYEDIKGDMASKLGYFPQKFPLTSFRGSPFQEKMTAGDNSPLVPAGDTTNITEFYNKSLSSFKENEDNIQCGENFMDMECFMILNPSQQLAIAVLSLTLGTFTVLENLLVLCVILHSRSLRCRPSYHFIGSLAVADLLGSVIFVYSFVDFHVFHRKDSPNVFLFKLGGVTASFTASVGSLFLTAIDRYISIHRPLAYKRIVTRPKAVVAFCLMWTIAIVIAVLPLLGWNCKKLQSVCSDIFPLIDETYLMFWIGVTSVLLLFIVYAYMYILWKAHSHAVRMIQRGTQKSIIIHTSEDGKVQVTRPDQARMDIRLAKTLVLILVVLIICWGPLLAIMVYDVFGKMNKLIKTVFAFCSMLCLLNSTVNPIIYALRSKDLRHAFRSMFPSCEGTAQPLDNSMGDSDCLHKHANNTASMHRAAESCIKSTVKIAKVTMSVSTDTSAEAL

Cannabinoid receptor 1 (Rattus norvegicus, UniProt P20272), sequence (P20272 whole entry): as the sequence (P47746 whole entry) above, with D95E counted along it

SMILES: CCCCCCC(C)(C)c1cc(OC)c([C@H]2C=C(CO)[C@H]3C[C@@H]2C3(C)C)c(OC)c1
- Ki [1]: > 10 µM

SMILES: C=C(C)[C@@H]1CCC(C)=C[C@H]1c1c(O)cc(CCCCC)cc1O [CANNABIDIOL]
- Activity [2]: 21%
- Activity [3]: 77%
- Activity [4]: 21%
- Activity [5]: 17%
- Activity [6]: 50%
- Activity [7]: 50%
- Activity [8]: 50%
- Activity [9]: 50%
- Activity [10]: 50%
- Activity [11]: >50%
- Activity [12]: >50%
- Activity [13]: >50%
- Activity [14]: 50%
- EC50 [15]: 3.7 µM
- IC50 [16]: 0.45 nM

SMILES: C=C(C)[C@@H]1CCC(C)=C[C@H]1c1c(C)cc(O)cc1O
- IC50 [16]: 33 nM

SMILES: C=C(C)[C@@H]1CCC(C)=C[C@H]1c1ccc(CCCCC)cc1O
- IC50 [17]: 30.9 nM
